Article PMC9176662, “Design, synthesis, molecular modeling and biological evaluation of novel Benzoxazole-Benzamide conjugates via a 2-Thioacetamido linker as potential anti-proliferative agents, VEGFR-2 inhibitors and apoptotic inducers” (Journal of Enzyme Inhibition and Medicinal Chemistry, 2022)

Columns and labels:
WI-38 cells = test: Cytotoxicity against normal fibroblasts, SRB assay, WI-38; type: cell-based; conditions: normal human fibroblasts, 72 h, mean ± SD of three separate experiments
From the text: (§1) Several of these derivatives were reported as acting as competitive inhibitors of different tyrosine kinases, with potent cytotoxic activity against various cell lines[58]^,[59]. […] Thus, in this study a novel series of benzoxazole-benzamide conjugates was initially evaluated for their potential anti-cancer activity against colon cancer cell line (HCT-116), breast cancer cell line (MCF-7) and normal human fibroblasts (WI-38), using the Sulforhodamine B colorimetric (SRB) assay.
(§2) 2.1. Anti-proliferative activity against HCT-116 and MCF-7 human cancer cells lines.
(§3) The sulforhodamine B (SRB) assays were performed according to Skehan et al..
(§4) Briefly, exponentially growing cells were trypsinized, counted and seeded at the appropriate densities (5000 cells/100 μL/ well) into 96-well microtiter plates. Cells were incubated in a humidified atmosphere at 37 °C for 24 h. Then, the cells were exposed to the tested compounds at the desired concentrations (0.01, 0.1, 1, 10, and 100 μM) or to 1% dimethyl sulfoxide (DMSO) for 72 h. At the end of the treatment period, the media were removed, and the cells were fixed with 10% trichloroacetic acid at 4 °C for 1 h. Following, the cells were washed with tap water four times and incubated with SRB 0.4% for 30 min. Excess dye was removed by washing repeatedly with 1% (vol/vol) acetic acid. The protein-bound dye was dissolved in 10 mM Tris base solution for (optical density) OD determination at 510 nm using a Spectra Max plus Microplate Reader (Molecular Devices, CA). Cell viability was expressed relative to the untreated control cells. […]

MCF-7 cells = test: Anti-proliferative activity, SRB assay, MCF-7; type: cell-based, human; conditions: for IC50: Homo sapiens, SRB assay, 72 h exposure, mean ± SD of three separate experiments; for MCF-7 SI (selectivity index): ratio of IC50 for normal cells (WI-38) to IC50 for MCF-7
From the text: as §1, §2, §3, §4

HCT-116 cells = test: Anti-proliferative activity, SRB assay, HCT-116; type: cell-based, human; conditions: for IC50: Homo sapiens, SRB assay, 72 h exposure, mean ± SD of three separate experiments; for HCT-116 SI (selectivity index): ratio of IC50 for normal cells (WI-38) to IC50 for HCT-116
From the text: as §1, §2, §3, §4

VEGFR-2 Protein Kinase = target: T1, VEGFR-2 Protein Kinase (Homo sapiens, UniProt P35968); test: VEGFR-2 inhibitory activity (HTScan VEGF Receptor-2 Kinase Assay Kit, ELISA); type: biochemical; conditions: mean of three individual experiments
T1 construct: It includes active VEGFR-2 kinase; purchased HTScan VEGF Receptor-2 Kinase Assay Kit
Method: 2.2. VEGFR-2 Inhibitory activity
VEGFR-2 ELISA (Enzyme-Linked Immunosorbent Assay) kits (HTScan® VEGF Receptor-2 […]
phospho-tyrosine antibody) for detection of the phosphorylated form of the substrate peptide).
On a 96-well plate, a particular VEGFR-2 antibody was seeded and 100 μL of the normal solution or the tested compound tested was applied, incubated at room temperature for 2.5 h and washed. Then, 100 μL of the prepared biotin antibody was added, incubated for an additional 1 h at room temperature and washed. Following, 100 μL of streptavidin solution was added at room temperature, incubated for 45 minutes and then, 100 μL of TMB Substrate solution was applied and incubated at room temperature for 30 minutes. Finally, 50 μL stop solution was added and the absorption was measured at 450 nm instantly. The standard curve, the X -axis concentrations, and the Y-axis absorbance were drawn. […]

T1 sequence (P35968 20-1356): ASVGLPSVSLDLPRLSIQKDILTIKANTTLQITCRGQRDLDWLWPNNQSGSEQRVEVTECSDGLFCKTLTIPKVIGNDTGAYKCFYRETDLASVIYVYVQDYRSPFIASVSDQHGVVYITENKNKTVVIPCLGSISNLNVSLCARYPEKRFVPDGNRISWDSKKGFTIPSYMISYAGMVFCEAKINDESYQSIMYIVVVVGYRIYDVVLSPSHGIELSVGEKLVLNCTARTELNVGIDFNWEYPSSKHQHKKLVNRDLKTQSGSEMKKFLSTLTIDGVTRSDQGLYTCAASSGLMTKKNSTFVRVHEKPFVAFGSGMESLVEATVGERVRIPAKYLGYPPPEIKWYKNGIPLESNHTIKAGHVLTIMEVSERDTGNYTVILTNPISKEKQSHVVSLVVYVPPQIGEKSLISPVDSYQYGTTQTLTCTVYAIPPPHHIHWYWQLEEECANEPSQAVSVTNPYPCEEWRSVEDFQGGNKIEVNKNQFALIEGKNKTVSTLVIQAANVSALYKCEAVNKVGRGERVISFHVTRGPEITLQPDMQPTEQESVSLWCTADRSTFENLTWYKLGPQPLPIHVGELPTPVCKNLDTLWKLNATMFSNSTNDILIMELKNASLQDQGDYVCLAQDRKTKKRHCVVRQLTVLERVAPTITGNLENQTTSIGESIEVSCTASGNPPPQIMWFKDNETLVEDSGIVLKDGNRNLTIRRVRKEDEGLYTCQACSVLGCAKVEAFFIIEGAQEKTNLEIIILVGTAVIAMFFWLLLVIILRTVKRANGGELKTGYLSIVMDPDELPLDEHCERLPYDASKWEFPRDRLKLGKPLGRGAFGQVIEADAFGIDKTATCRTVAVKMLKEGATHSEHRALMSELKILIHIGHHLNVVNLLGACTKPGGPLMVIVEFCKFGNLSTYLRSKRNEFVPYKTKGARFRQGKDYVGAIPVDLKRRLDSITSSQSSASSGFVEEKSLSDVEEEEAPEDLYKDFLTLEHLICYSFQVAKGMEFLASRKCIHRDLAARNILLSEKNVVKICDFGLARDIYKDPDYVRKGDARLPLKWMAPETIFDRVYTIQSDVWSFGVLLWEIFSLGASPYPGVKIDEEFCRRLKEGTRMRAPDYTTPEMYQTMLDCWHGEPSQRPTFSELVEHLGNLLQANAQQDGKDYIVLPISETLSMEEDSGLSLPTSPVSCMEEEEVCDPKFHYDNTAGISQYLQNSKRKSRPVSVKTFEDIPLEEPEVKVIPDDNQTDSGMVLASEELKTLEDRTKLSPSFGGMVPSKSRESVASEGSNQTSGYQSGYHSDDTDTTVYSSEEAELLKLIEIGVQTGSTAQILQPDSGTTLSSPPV

SMILES	melting point [°C]	IC50 (MCF-7 cells; MCF7, 72 h) [µM]	IC50 (HCT-116 cells; HCT-116, 72 h) [µM]	IC50 (VEGFR-2 Protein Kinase) [µM]	IC50 (WI-38 cells) [µM]	MCF-7 SI (selectivity index) (MCF-7 cells)	HCT-116 SI (selectivity index) (HCT-116 cells)	IC50 (MCF-7 cells; MCF7) [µM]	IC50 (HCT-116 cells; HCT-116) [µM]
O=C(CSc1nc2ccccc2o1)Nc1ccc(C(=O)Nc2ccc(Cl)cc2)cc1 [Compound 3]	238 to 240	22.7 ± 0.008	24.2 ± 0.019	–	59.3 ± 0.45	2.6	2.4	–	–
COc1ccc(NC(=O)c2ccc(NC(=O)CSc3nc4ccccc4o3)cc2)cc1 [Compound 4]	260 to 262	23.6 ± 0.015	23.2 ± 0.012	–	51.5 ± 0.4	2.2	2.2	–	–
Cc1ccc2oc(SCC(=O)Nc3ccc(C(=O)Nc4ccccc4)cc3)nc2c1 [Compound 6]	240 to 242	19.1 ± 0.006	30.7 ± 0.011	–	124.6 ± 0.7	6.5	4.0	–	–
Cc1ccc2oc(SCC(=O)Nc3ccc(C(=O)Nc4ccc(Cl)cc4)cc3)nc2c1 [Compound 7]	265 to 267	24 ± 0.011	32 ± 0.002	–	128.2 ± 0.75	5.3	4.0	–	–
COc1ccc(NC(=O)c2ccc(NC(=O)CSc3nc4cc(C)ccc4o3)cc2)cc1 [Compound 8]	258 to 260	22.3 ± 0.004	28.8 ± 0.01	–	135.4 ± 0.85	6.0	4.7	–	–
O=C(CSc1nc2cc(Cl)ccc2o1)Nc1ccc(C(=O)Nc2ccccc2)cc1 [Compound 10]	245 to 247	16.1 ± 0.011	16.7 ± 0.012	0.704 ± 0.009	125.5 ± 0.72	7.8	7.5	–	–
O=C(CSc1nc2cc(Cl)ccc2o1)Nc1ccc(C(=O)NNC(=O)c2ccccc2)cc1 [Compound 15]	277 to 279	15.3 ± 0.01	12.9 ± 0.014	0.597 ± 0.007	131.5 ± 0.8	8.6	10.2	–	–
CNC(=O)c1cc(Oc2ccc(NC(=O)Nc3ccc(Cl)c(C(F)(F)F)c3)cc2)ccn1 [Sorafenib, reference compound]	–	–	–	–	–	–	–	10.5 ± 0.014	11.6 ± 0.012

Now from value to compound, other results behind:

melting point [°C]	IC50 (MCF-7 cells; MCF7, 72 h) [µM]	IC50 (HCT-116 cells; HCT-116, 72 h) [µM]	IC50 (VEGFR-2 Protein Kinase) [µM]	SMILES	IC50 (WI-38 cells) [µM]	MCF-7 SI (selectivity index) (MCF-7 cells)	HCT-116 SI (selectivity index) (HCT-116 cells)	IC50 (MCF-7 cells; MCF7) [µM]	IC50 (HCT-116 cells; HCT-116) [µM]
250 to 252	11.7 ± 0.014	18.5 ± 0.014	–	O=C(CSc1nc2ccccc2o1)Nc1ccc(C(=O)Nc2ccccc2)cc1 [Compound 2]	56.7 ± 0.36	4.8	3.0	–	–
256 to 258	12.4 ± 0.007	20.9 ± 0.025	–	Cc1ccc2oc(SCC(=O)Nc3ccc(C(=O)NC4CCCCC4)cc3)nc2c1 [Compound 5]	85.4 ± 0.55	6.9	4.0	–	–
260 to 262	12.3 ± 0.008	17.1 ± 0.008	0.649 ± 0.008	O=C(CSc1nc2cc(Cl)ccc2o1)Nc1ccc(C(=O)NC2CCCCC2)cc1 [Compound 9]	74.6 ± 0.53	6.0	4.4	–	–
266 to 268	9.4 ± 0.016	10.4 ± 0.01	0.385 ± 0.005	COc1ccc(NC(=O)c2ccc(NC(=O)CSc3nc4cc(Cl)ccc4o3)cc2)cc1 [Compound 12]	126.2 ± 0.75	13.4	12.1	–	–
270 to 272	9 ± 0.005	9.1 ± 0.005	–	O=C(CSc1nc2ccccc2o1)Nc1ccc(C(=O)NNC(=O)c2ccccc2)cc1 [Compound 13]	91.3 ± 0.6	10.1	10.0	–	–
250 to 252	9.5 ± 0.009	9.7 ± 0.013	–	Cc1ccc2oc(SCC(=O)Nc3ccc(C(=O)NNC(=O)c4ccccc4)cc3)nc2c1 [Compound 14]	96.5 ± 0.65	10.1	9.9	–	–
